Experimental data as given in BindingDB's records for doi:10.1016/j.bmc.2008.02.078 (University of Tokyo, 2008).

molecular target: Alpha-glucosidase MAL32 (Saccharomyces cerevisiae (strain ATCC 204508 / S288c), UniProt P38158); test: alpha-Glucosidase Inhibition Assay; details: pH 7; 37 °C
Protocol: The alpha-glucosidase inhibitory activity of test compounds was determined in a 96-well plate format. The reaction mixture containing enzyme and chromogenic substrate in the presence or absence of test compounds were incubated, and the amount of released p-nitrophenol was measured based on the absorbance at 405 nm. The IC50 values were calculated from the dose-response curves.

Sequence of Alpha-glucosidase MAL32 (P38158 whole entry): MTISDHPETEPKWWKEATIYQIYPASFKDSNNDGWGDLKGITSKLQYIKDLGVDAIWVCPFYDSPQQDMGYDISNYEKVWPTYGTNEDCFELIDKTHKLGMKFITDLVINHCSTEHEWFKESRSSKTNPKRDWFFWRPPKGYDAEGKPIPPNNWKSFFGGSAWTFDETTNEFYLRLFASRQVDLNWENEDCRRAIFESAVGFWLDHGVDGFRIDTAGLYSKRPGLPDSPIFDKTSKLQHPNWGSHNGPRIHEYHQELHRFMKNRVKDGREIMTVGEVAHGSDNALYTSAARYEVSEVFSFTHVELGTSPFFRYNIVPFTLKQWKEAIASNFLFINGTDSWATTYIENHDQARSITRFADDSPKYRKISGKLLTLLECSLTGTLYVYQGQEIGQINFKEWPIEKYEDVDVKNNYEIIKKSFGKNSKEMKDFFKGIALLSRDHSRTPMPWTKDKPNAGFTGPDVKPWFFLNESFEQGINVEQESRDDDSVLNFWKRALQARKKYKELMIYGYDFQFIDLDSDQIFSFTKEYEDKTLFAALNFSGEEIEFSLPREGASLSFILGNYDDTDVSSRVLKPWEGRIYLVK

How did the IC50 turn out when `COc1ccc2c(c1)CCc1ccc(cc1)Oc1cccc(c1)CCc1ccc-2c(OC)c1` [5,25-dimethoxy-14-oxapentacyclo[20.2.2.2^{10,13}.1^{15,19}.0^{2,7}]nonacosa-1(24),2(7),3,5,10,12,15,17,19(27),22,25,28-dodecaene] was run?
The IC50 was greater than 30 µM.

How did the IC50 turn out when `COc1ccc2cc1Oc1ccc(cc1)CCc1ccccc1-c1ccc(cc1)CC2` [16-methoxy-14-oxapentacyclo[20.2.2.2^{10,13}.1^{15,19}.0^{2,7}]nonacosa-1(24),2(7),3,5,10,12,15,17,19(27),22,25,28-dodecaene] was run?
Its IC50 is greater than 100 µM.

Which IC50 does the source give for `CC(C)CC[C@@H](O)[C@@H](C)[C@H]1CCC2C3CC=C4C[C@@H](O)CC[C@]4(C)C3C[C@@H](C)C21` (stereo partly drawn) [(2R,5S,14S,16R)-14-[(2S,3R)-3-hydroxy-6-methylheptan-2-yl]-2,16-dimethyltetracyclo[8.7.0.0^{2,7}.0^{11,15}]heptadec-7-en-5-ol] here?
Its IC50 is 100 µM.
